Test results from US20260355199A1, “COMPOSITIONS AND METHODS FOR TREATING OR PREVENTING NONALCOHOLIC STEATOHEPATITIS (NASH), ANOREXIA, DEPRESSION, ENDOMETRIOSIS, AND OTHER DISEASES OR DISORDERS” (priority 2022, published 2026).
“Also recorded” adds a separate entry of the source.

Assays:
TET2 = TET2 expression in GT1-7 cells; format: cell-based, mouse; conditions: 10 μM, 6 h
Experimental: For Bobcat339 treatment (FIG. 15A and FIG. 15B), GT1-7 cells grown in 24-well plates at 2×10^5 cells/well were incubated with vehicle or Bobcat339 at a final concentration of 10 μM for 6 h, followed by RNA and protein extractions. For TET3 protein stability assay (FIG. 15B), GT1-7 cells in 24-well plates at 2×10^5 cells/well were incubated with vehicle or Bobcat339 at a final concentration of 10 μM for 3 hours, followed by addition of cycloheximide (CHX, Cell Signaling, 2112) at a final concentration of […] in the presence of 10 μM of Bobcat339. Proteins were harvested at 0, 1, 2, and 3 hours after addition of CHX. For TET3 expression restoration experiments (FIG. 15C and FIG. 15D), GT1-7 or SH-SY5Y cells seeded in 24-well plates at 2×10^5 cells/well were infected with Ad-GFP or Ad-TET3 at 4000 gc/cell. Following 16 h of infection, vehicle or Bobcat339 were added at a final concentration of 10 μM. Protein and RNA were isolated 48 h later and analyzed.
GT1-7 and SH-SY5Y cells in 24-well plates were collected by manual scraping in 2×SDS-sample buffer containing 1× Phosphatase inhibitor cocktail (Thermo, 78427) and 1× Protease inhibitor cocktail (Thermo, 78438), followed by heating at 100 °C for 5 min with occasional vortexing. […]

AGRP in the ARC = test: AGRP expression and feeding of chow-fed mice given Bobcat339 in drinking water; format: in vivo, mouse
From the text: It has previously been shown that TET3 expression is aberrantly elevated in the livers of humans and mice with type 2 diabetes and that liver-specific, siRNA-mediated TET3 knockdown improves glucose homeostasis both in dietary and genetic mouse models of diabetes (Li D. et al., 2020, Nature Communications, 11:342). Bobcat339 (4-Amino-1-[1,1′-biphenyl]-3-yl-5-chloro-2(1H)-pyrimidinone) is a synthetic cytosine derivative capable of binding competitively with 5mC to the active sites of [COMPOUND LEFT OUT] and inhibits their enzymatic activity in cultured neuronal cells (Chua G. N. L. et al., 2019, ACS Medicinal Chemistry Letters, 10:180-185). Although not bound by any particular theory, it was hypothesized that Bobcat339 has an anti-diabetic effect owing to its ability to inhibit [COMPOUND LEFT OUT]. Thus, the present studies employed high fat diet (HFD)-induced diabetic mice that were treated with Bobcat339 in drinking water for two weeks. […] Thus, nondiabetic mice fed on regular chow were treated with Bobcat339 in drinking water. Four days later, ARCs were isolated from ad libitum-fed mice and analyzed. […]
Immunofluorescence Postfixed sections were cut into 40 μm-thick sections. […] The sections were coverslipped and visualized using a Keyence BZ-X700 fluorescence microscope. The fluorescence signals from GFP and mCherry in AgRP neurons were detected without immunostaining. […]

Nc1nc(=O)n(-c2cccc(-c3ccccc3)c2)cc1Cl [Bobcat339, 4-Amino-1-[1,1′-biphenyl]-3-yl-5-chloro-2(1H)-pyrimidinone]
TET2 expression (TET2): did not affect TET2 expression | AGRP expression in the ARC (AGRP in the ARC; Bobcat339 100 mg/kg per day in drinking water, 4 days, 100 mg/kg/day): increased AGRP expression in the ARC; also recorded: increased AGRP peptide; also recorded: increased AGRP production | feeding (AGRP in the ARC; mice exposed to Bobcat339): induced hyperphagia
